ChEMBL document CHEMBL4196191, “Lowering Lipophilicity by Adding Carbon: One-Carbon Bridges of Morpholines and Piperazines” (J Med Chem, 2018)

Assays:
[1] = Distribution coefficient, log D of the compound in buffer/octanol solution by shake-flask method; assay type: physicochemical
[2] = Intrinsic clearance in rat hepatocytes assessed per million cells; assay type: ADME, cell-based, Hepatocyte; conditions: read-out: CLH
[3] = Intrinsic permeability in human Caco2 cells; assay type: ADME, cell-based; conditions: Caco-2
[4] = biological target: Voltage-gated inwardly rectifying potassium channel KCNH2 (Homo sapiens, UniProt Q12809); assay: Inhibition of human ERG
Voltage-gated inwardly rectifying potassium channel KCNH2, sequence (Q12809 whole entry): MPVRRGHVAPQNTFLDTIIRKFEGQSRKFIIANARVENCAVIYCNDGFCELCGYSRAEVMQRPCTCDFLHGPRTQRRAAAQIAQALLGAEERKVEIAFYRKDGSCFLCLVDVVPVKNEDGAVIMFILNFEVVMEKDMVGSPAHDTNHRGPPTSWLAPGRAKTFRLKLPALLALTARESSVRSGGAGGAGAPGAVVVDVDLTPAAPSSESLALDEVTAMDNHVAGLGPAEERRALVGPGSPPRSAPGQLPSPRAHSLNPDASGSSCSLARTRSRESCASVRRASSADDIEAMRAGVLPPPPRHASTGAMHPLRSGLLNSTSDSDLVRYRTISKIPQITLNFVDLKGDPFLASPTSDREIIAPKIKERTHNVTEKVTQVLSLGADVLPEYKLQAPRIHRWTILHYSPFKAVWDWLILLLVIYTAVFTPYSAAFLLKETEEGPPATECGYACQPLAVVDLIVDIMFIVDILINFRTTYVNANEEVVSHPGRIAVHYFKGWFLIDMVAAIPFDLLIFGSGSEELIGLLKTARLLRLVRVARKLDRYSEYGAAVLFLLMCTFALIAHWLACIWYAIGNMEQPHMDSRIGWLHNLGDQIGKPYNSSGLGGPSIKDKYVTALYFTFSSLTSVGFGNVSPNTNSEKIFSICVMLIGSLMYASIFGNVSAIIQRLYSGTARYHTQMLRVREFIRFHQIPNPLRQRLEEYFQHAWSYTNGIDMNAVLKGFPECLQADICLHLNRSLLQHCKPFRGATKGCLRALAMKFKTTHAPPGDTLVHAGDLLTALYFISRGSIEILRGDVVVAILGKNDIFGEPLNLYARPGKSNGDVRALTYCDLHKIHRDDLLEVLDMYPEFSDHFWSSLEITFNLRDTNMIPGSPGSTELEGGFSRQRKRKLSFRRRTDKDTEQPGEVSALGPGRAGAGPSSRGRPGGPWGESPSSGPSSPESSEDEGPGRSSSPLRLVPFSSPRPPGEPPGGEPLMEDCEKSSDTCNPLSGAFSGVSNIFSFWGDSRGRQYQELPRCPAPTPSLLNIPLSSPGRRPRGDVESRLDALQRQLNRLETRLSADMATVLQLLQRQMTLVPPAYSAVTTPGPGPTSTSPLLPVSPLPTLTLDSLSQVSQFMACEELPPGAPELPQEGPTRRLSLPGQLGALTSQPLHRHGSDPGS

[5] = Dissociation constant, pKa of the compound (morpholine); assay type: physicochemical

## Cc1c[nH]c2ncnc(O[C@H]3CC[C@H](N4C[C@@H]5C[C@H]4CO5)CC3)c12
[1]
  logD: 2
[2]
  hepatocyte CLint: 36 µL/min/1e6 cells
[3]
  Papp: 29 ×10⁻⁶ cm/s
[4]
  IC50: > 39.8 µM

## Cc1c[nH]c2ncnc(O[C@H]3CC[C@H](N4CCO[C@@H](C)C4)CC3)c12
[1]
  logD: 3
[2]
  hepatocyte CLint: 140 µL/min/1e6 cells
[3]
  Papp: 31 ×10⁻⁶ cm/s
[4]
  IC50: 25.1 µM

## Cc1c[nH]c2ncnc(O[C@H]3CC[C@H](N4CCO[C@H](C)C4)CC3)c12
[1]
  logD: 3.1
[2]
  hepatocyte CLint: 210 µL/min/1e6 cells
[3]
  Papp: 27 ×10⁻⁶ cm/s
[4]
  IC50: > 39.8 µM

## Cc1c[nH]c2ncnc(O[C@H]3CC[C@H](N4CCOCC4)CC3)c12
[1]
  logD: 2.6
[2]
  hepatocyte CLint: 180 µL/min/1e6 cells
[3]
  Papp: 33 ×10⁻⁶ cm/s
[5]
  pKa: 7.5
[4]
  IC50: > 39.8 µM

## Cc1c[nH]c2ncnc(O[C@H]3CC[C@H](N4C[C@H]5C[C@@H]4CO5)CC3)c12
[1]
  logD: 1.8
[2]
  hepatocyte CLint: 110 µL/min/1e6 cells
[3]
  Papp: 25 ×10⁻⁶ cm/s
[5]
  pKa: 8.1
[4]
  IC50: > 39.8 µM
